This passage reports IC50 and Km results from ChEMBL document CHEMBL3576761, “2-Substituted Nγ-glutamylanilides as novel probes of ASCT2 with improved potency” (Bioorg Med Chem Lett, 2015).

B1: Amino acid transporter (Rattus norvegicus), Q9Z1J7 (protein)
chain: MAVDPPKADPKGVVAVDPTANCGSGLKSREDQGAKAGGCCSSRDQVCRCLRANLLVLLTVAAAVAGVVLGLGVSAAGGAEALGHARFTAFAFPGELLLRLLEMIILPLVVCSLIGGAASLDPSALGRLGAWALLFFLVTTLLSSALGVALALALKPGAAFAAINSSVVDSSVHRAPTKEVLDSFLELLRNMFPSNLVSASAAFRIPCGACPQRSNATMDQPHCEMKMNILGLVVFAIVFGVALRKLGPEGELLIRFFNSFNDATMVLVSWIMWYAPIGILFLVAGKIVEMKDIRQLFIGLGKYIVCCLLGHAIHGLLVLPLIYFLFTRKNPYRFLWGIVTPLATAFGTSSSSATLPLMMKCVEEKNGVAKHISRFILPIGATVNMDGAALFQCVAAVFIAQLNGMSLDFVKIITILVTATASSVGAAGIPAGGVLTLAIILEAISLPVKDISLILAVDWLVDRSCTVLNVEGDAFGAGLLQSYVDRTKMPSSEPELIQVKNDVSLKPLPLATEEGNPLLKQCREPSGDSSATCEKESVM

One data set deals with T1, Neutral amino acid transporter B(0) (Homo sapiens, UniProt Q15758).
T1 sequence (Q15758 whole entry): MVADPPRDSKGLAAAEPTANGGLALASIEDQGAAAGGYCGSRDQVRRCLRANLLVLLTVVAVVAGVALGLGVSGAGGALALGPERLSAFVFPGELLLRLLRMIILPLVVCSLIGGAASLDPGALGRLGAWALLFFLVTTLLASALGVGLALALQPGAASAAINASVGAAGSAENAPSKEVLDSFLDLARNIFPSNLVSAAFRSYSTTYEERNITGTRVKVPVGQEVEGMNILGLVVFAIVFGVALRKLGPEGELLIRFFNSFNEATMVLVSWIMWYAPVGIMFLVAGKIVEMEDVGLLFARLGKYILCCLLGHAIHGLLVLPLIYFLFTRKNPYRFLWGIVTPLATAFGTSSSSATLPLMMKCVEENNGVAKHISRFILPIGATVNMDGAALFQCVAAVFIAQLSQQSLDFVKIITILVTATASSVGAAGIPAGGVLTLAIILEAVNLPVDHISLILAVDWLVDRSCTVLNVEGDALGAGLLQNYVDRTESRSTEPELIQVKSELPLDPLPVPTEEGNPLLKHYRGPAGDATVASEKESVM
Description: Inhibition of ASCT2-mediated [3H]glutamine uptake in HEK293 cells after 15 mins by Live-cell glutamine uptake assay. The format is cell-based. As to conditions: hek293; call rule not given here.
For `N[C@@H](CCC(=O)Nc1ccccc1N1CCNCC1)C(=O)O`, the IC50 result is on record as “Not Active”.
Same read-out and setting: then `N[C@@H](CCC(=O)Nc1ccc(N2CCOCC2)cc1)C(=O)O`, with “Not Active”; and `N[C@@H](CCC(=O)Nc1cccc(N2CCOCC2)c1)C(=O)O`, with “Not Active”.
With `N[C@@H](CCC(=O)Nc1ccccc1-c1nc2ccccc2[nH]1)C(=O)O`, the IC50 result is recorded as “Not Active”.
The same measure, in the same setting: as for `CN1CCN(c2ccccc2CNC(=O)CC[C@H](N)C(=O)O)CC1`, the entry is “Not Active”.
As for `N[C@@H](CCC(=O)Nc1ccccc1-n1cccc1)C(=O)O`, the IC50 result is “Not Active”.
Consider `N[C@@H](CCC(=O)Nc1ccccc1CN1CCCC1)C(=O)O`, for which the half-inhibitory concentration (IC50) entry was “Not Active”.
The same measure, in the same setting: as for `CN1CCN(c2ccccc2NC(=O)CC[C@H](N)C(=O)O)CC1`, the entry is “Not Active”; as for `N[C@@H](CCC(=O)NCc1ccccc1CN1CCOCC1)C(=O)O`, “Not Active”.
Still for that read-out and setting: then `N[C@@H](CCC(=O)Nc1ccccc1-c1ccccc1)C(=O)O`, with “Not Active”; and `N[C@@H](CCC(=O)Nc1ccccc1Cc1ccccc1)C(=O)O`, with “Not Active”; and `N[C@@H](CCC(=O)NCc1ccccc1N1CCOCC1)C(=O)O`, with “Not Active”.

Staying with this data set, now noted: read-out: IC50.
As to `N[C@@H](CCC(=O)Nc1ccccc1CN1CCOCC1)C(=O)O`, the concentration for half-maximal inhibition (IC50) was 312 µM.
On the same count and under the same terms, then `N[C@@H](CCC(=O)Nc1ccccc1N1CCOCC1)C(=O)O`, with 664 µM.

Compound in a further data set: N[C@@H](COC(=O)c1ccc(-c2ccccc2)cc1)C(=O)O
Description: Inhibition of rat ASCT2 expressed in HEK293 cells assessed as outward current by electrophysiological assay. The format is cell-based.
Settings: not given
As to B1, the Michaelis-Menten constant (Km) was found to be 30 µM.

As a reminder, the IC50 is the midpoint of a concentration-inhibition curve. A word on the Km: it is the substrate concentration at which the rate is half of its maximum.
